From publication doi:10.1101/2025.08.06.668955, “High-Affinity, Structure-Validated and Selective Macrocyclic Peptide Tools for Chemical Biology Studies of Huntingtin” (bioRxiv, 2025)
Where a SMILES comes first, the peptide text is derived from it. Bridges are numbered along the chain shown (N, C = ends).

Legend:
HTTQ54 = biological target: T1, HTTQ54 (Homo sapiens, UniProt P42858, INS38QQQQQQQQQQQQQQQQQQQQQQQQQQQQQQQQQ); assay: Thermal shift assay (DSF), HTTQ54; format: binding; conditions: SYPRO Orange, 0.25 mg/mL protein, macrocycle up to 10 μM, 2.5% DMSO, n=3
T1 construct: FLAG; made in house; host or cells: Sf9 insect cells (baculovirus)
Method: (§1) In an Axygen® 384-well PCR microplate (REF# PCR-384-LC480-W-NF, Corning), samples were mixed to yield a final concentration of 0.25 mg/mL Q54 or Q23/HAP40, a 5-pt 2-fold serial dilution of each macrocycle (top concentration of 10 μM, 2.5% DMSO), and 5X SYPRO™ Orange (CAT# S6650, Thermo Fisher Scientific) in buffer (20 mM HEPES pH 7.4, 150 mM NaCl, 1 mM TCEP, 0.005% Tween-20). Differential Scanning Fluorimetry (DSF) was performed using a LightCycler® 480 (Roche LifeSciences) set to a 4 °C/min temperature ramp (20–95 °C) and fluorescence detection at 580 nm. Melting temperatures (Tm) were obtained from the minima of the negative derivative of each curve. The propagated error of the thermal shift (ΔTm) was calculated from the standard deviation of each Tm mean (n=3). To ensure a maximally macrocycle-bound fraction (KD ~10 nM; ~100% bound) at 0.25 mg/mL HTT or HTT-HAP40 (~0.7 μM), the upper limit of macrocycle tested was 10 μM.
(§2) 98 Supplementary Figure. 10. Thermal shift (ΔTm) induced by macrocycle binding. Melting
(§3) 99 temperature of HTTQ54 (left) with HL5 or HL2 minus HTTQ54 with DMSO (46.5 °C), and (right)
(§4) 100 HTTQ23-HAP40 with HD4, HL2, HL5, HHD2, HHD3, or HHL1 minus HTTQ23-HAP40 with DMSO
(§5) 101 (51.0 °C). ΔTm significance was determined using an unpaired t-test with Welch correction,
(§6) 102 comparing to the mean Tm of Q54 or Q23-HAP40 with DMSO; *P < 0.05, **P < 0.01, ***P <
103 0.001. […]

HTTQ23-HAP40 = biological target: T2, HTTQ23-HAP40 (Homo sapiens, UniProt P23610+P42858, INS38QQ); assay: Thermal shift assay (DSF), HTTQ23-HAP40; format: binding; conditions: SYPRO Orange, 0.25 mg/mL protein, macrocycle up to 10 μM, 2.5% DMSO, n=3
T2 construct: Full-length wildtype HTT with a polyQ tract of 23 glutamines; FLAG; made in house; host or cells: Sf9 insect cells (baculovirus)
Method: as §1, §2, §3, §4, §5, §6
103 0.001. The summary table reports the ΔTm and exact P value at the highest concentration tested
(1 picture or pasted object on this page, not shown here)

HAP40 = assay: Macrocycle precipitation (MP), co-purification of HAP40, LC-MS/MS; format: binding, human; conditions: HEK293T lysate versus HTT CRISPR knockout line

T2 sequence (P42858 with tags, fused parts or gaps INS38QQ): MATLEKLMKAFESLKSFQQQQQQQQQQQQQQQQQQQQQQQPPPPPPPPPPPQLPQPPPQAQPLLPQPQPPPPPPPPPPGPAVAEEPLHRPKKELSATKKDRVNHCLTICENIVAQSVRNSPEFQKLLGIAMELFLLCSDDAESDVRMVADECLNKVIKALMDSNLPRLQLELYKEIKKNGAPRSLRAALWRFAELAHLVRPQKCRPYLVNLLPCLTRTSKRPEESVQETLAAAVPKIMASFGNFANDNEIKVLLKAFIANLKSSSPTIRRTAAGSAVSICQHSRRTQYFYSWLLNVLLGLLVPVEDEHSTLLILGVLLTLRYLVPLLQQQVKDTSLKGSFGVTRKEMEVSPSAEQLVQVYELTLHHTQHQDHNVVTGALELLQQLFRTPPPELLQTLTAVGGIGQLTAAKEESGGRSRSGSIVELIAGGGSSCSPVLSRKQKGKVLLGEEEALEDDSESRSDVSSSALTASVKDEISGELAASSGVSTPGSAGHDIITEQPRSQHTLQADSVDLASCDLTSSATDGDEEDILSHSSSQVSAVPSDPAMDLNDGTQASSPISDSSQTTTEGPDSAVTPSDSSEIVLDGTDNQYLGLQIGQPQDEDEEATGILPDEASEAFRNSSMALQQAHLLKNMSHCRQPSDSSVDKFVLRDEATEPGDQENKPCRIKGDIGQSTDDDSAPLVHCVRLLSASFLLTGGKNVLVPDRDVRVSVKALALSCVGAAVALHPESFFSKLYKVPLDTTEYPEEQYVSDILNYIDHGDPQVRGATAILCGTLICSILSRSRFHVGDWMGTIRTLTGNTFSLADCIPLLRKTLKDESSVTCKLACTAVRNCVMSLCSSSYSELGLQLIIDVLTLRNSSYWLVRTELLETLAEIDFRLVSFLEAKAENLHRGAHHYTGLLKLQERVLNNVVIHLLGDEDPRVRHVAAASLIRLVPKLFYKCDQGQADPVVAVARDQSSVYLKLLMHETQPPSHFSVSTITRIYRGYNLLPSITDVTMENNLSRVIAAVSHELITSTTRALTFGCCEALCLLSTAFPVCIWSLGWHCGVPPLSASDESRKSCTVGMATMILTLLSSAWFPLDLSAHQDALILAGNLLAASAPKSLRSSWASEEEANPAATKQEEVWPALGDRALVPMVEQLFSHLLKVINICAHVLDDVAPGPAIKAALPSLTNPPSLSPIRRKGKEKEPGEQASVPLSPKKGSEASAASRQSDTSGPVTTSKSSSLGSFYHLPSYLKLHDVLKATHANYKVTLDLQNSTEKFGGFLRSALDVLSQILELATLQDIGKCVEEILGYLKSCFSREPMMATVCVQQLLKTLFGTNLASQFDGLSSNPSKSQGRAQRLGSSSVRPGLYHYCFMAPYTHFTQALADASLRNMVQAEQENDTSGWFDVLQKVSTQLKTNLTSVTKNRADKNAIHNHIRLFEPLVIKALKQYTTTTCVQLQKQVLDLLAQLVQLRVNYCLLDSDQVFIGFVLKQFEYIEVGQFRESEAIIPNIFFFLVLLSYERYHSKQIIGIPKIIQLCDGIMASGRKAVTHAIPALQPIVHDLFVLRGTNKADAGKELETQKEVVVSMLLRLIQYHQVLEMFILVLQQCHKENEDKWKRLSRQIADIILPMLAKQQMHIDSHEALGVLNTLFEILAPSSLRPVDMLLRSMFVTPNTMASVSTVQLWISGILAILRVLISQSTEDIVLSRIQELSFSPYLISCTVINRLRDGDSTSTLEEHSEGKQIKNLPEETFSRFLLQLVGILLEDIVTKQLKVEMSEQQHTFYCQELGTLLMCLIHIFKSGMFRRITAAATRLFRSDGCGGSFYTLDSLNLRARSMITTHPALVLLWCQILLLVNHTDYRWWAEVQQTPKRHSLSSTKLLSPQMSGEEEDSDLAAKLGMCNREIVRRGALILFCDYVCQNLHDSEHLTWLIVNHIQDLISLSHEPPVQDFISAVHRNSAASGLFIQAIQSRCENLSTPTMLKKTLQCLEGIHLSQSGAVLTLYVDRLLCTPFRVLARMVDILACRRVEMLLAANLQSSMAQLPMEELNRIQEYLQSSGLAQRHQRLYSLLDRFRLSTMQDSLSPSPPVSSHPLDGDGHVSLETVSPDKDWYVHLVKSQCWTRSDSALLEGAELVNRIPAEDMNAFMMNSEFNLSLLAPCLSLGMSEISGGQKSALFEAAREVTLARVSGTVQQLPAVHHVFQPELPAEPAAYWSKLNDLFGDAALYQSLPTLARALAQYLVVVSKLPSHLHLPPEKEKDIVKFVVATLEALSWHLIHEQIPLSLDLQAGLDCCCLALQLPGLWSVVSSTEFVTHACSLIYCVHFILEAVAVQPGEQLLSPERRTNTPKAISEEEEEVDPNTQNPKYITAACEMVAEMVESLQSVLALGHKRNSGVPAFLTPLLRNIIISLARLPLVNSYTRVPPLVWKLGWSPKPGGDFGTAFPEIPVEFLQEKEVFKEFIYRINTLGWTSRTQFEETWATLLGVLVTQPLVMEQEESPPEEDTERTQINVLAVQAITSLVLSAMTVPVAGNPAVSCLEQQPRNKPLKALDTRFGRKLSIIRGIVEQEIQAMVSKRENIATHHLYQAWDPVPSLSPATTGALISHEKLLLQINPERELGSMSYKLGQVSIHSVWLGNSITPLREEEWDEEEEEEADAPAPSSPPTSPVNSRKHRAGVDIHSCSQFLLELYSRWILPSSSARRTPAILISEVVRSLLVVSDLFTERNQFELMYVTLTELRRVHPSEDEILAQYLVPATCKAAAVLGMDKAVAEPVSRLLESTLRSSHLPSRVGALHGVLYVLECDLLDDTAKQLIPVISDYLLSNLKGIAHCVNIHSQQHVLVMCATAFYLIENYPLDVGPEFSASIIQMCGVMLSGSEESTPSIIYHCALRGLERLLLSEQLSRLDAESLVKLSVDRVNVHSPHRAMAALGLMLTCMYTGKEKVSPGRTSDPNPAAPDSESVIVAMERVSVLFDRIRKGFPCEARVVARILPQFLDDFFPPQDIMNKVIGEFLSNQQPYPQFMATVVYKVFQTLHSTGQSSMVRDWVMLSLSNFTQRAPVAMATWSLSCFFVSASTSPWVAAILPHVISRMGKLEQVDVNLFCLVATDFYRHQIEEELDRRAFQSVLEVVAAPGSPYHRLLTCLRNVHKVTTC
T2 sequence (P23610 whole entry, stated change not applied): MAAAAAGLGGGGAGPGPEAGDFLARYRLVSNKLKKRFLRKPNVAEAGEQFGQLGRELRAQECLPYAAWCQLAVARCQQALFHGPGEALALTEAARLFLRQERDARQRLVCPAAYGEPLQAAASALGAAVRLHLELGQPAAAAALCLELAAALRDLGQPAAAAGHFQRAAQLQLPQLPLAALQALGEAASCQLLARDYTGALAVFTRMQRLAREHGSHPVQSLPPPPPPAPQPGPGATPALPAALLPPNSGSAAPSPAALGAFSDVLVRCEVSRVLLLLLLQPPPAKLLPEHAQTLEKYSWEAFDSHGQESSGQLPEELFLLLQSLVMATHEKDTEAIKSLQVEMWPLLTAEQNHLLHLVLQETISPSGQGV

- Thermal shift (ΔTm) of HTTQ54 induced by macrocycle (HTTQ54): No significant thermal effects
- Thermal shift (ΔTm) of HTTQ23-HAP40 induced by macrocycle (HTTQ23-HAP40): No significant thermal effects
SMILES: CC(C)C[C@@H]1NC(=O)[C@H](Cc2ccc(O)cc2)NC(=O)[C@H](CCCNC(=N)N)NC(=O)[C@H](C)NC(=O)[C@H]([C@@H](C)O)NC(=O)[C@H](Cc2ccc(O)cc2)NC(=O)CSC[C@@H](C(N)=O)NC(=O)[C@H](CCCCN)NC(=O)[C@H](Cc2ccc(O)cc2)NC(=O)[C@H](Cc2c[nH]cn2)NC(=O)[C@H](CC(C)C)NC(=O)[C@H]([C@@H](C)O)NC(=O)CNC(=O)[C@H](CC(C)C)NC(=O)[C@H]([C@@H](C)O)NC1=O [HL2] ({CH2CO}-YTARYLTLGTLHYKC-NH2; thioether N-15; C-terminus assumed)
- Enrichment of HAP40 in macrocycle pulldowns (HAP40): consistently enriched
